In patent publication US4918099A, “Drug, preparation and use thereof” (priority 1985, dated 1990):
Read-outs that look alike come from different tables or passages of the source.

Assays:
[1] = Planta Med. 31, 214-220 (1977); cited from earlier work
[2] = system: lipid peroxidation in the mitochondria of rat liver; conditions: Arch. Pharm. Res. 7, 63-64, 1984; cited from earlier work
[3] = system: platelet aggregation in normal human plasma; assay: Platelet aggregation in normal human plasma induced by ADP; type: cell-based; conditions: for T/min, Aggregation (first value) / Tmax, Aggregation (first value): control 75.1; for activity at 1000 µM / inhibition at 1000 µM / activity at 100 µM / inhibition at 100 µM: Homo sapiens, Platelet; for activity at 1000 µM / activity at 100 µM: control 100
Description: The platelet aggregation was determined by a tubimetric method in a dual-channel aggregometer, assuming that a platelet-poor plasma represented 100% aggregation and that a platelet-rich plasma represented 0% aggregation. Each aggregometer tube was charged with 40 μl of platelet-rich plasma and 50 μl of test sample solution. The mixture was incubated at 37° C. for 2 min., whereupon 50 μl of ADP solution were added. Percent inhibition of the platelet aggregation caused by the test sample solution was calculated as follows: [formula]

β-galactosidase = assay: Lysosomal enzyme activity in kidney tissue; type: in vivo, mice
Text: (§1) Possibly, the lysosomal glycosidases active in the kidneys are involved in the micro-angiopathy accompanying diabetes mellitus. Therefore, the lysosomal glycosidase activities upon administration of brazilin and full extract were examined.
(§2) A number of mice was divided into three groups. Group I, which was used as control group, remained untreated. To the rest of the mice diabetes was induced by administering alloxan. Part of these diabetic mice remained untreated (diabetic control group II); to the rest of the diabetic mice a dose of 100 mg of brazilin per kg body weight was administered daily. After a test period of 10 and 30 days, respectively, kidney tissue was taken from the laboratory animals and the enzyme fraction was determined. In particular, incubation was carried out for 30 min at 37° C., the reaction was stopped by adding 0.05M glycine-NaOH buffer solution (pH 10.4), centrifugation was carried out at 3000 U/min for 10 min, and the amount of p-nitrophenol formed per min and per mg of protein was determined spectrophotometrically at 410 nm at the supernatant.

α-mannosidase = assay: Lysosomal enzyme activity in kidney tissue; type: in vivo, mice
Text: as §1, §2

β-glucuronidase = assay: Lysosomal enzyme activity in kidney tissue; type: in vivo, mice
Text: as §1, §2

insulin receptors = assay: 125I-insulin binding to erythrocytes of brazilin treated diabetic mice
Description: For interpreting these findings, further tests were made with the aim to find out whether brazilin changes the affinity of the insulin receptors or can possibly increase the number of the insulin receptors.
From the laboratory animals of the above-mentioned control group (diabetic mice) and the test group (diabetic brazilin treated mice) erythrocytes (2.6×10^9 /ml) were taken, ^125 I-insulin was bound thereto (85 pM^125 I), and thereupon incubated in the presence of increasing amounts of unlabelled insulin (32 pM to 1.8 / μm) at 15° C. for 120 min. The amount of specifically bound ^125 I-insulin was then determined by subtracting the non-specifically bound insulin (10 ng/ml). The results obtained are shown in the graph of FIG. 6.

[4] = Rev. Latinoam. Microbiol. 1, 225-232 (1958); cited from earlier work
[5] = Comparison of synthetic substances with full extract; conditions: synthetically prepared substance
[6] = system: fat pads isolated from rats; assay: Lipogenesis: esterified lipids and free fatty acids in fat pads isolated from rats; type: in vivo
Description: With (a) untreated (normal) control animals (rats), (b) diabetic rats, and (c) diabetic brazilin treated rats glucose oxidation and lipogenesis were investigated (by means of the esterified lipids and the free fatty acids). Diabetes was induced by intravenous administration of streptozotocin (40 mg/kg live weight). Brazilin was administered intraperitoneally for 15 days (100 mg/kg body weight). Within the same period the same volume of saline solution was administered to the untreated animals of the control group.
The effects of additional brazilin administration on lipogenesis were determined by means of the esterified lipids and free fatty acids formed from 1-^14 C-glucose. The measurements were carried out according to established methods.

[7] = Blood sugar lowering effect of brazilin in streptozotocin diabetic SD rats; type: in vivo
Description: By intraperitoneally administering streptozotocin (70 mg per 1 kg body weight in 0.1M of citrate buffer solution, pH 4.0) diabetes was induced in SD rats. 20 days after the injection of streptozotocin the blood sugar values of the laboratory animals were measured. The hyperglycemic rats were divided into two groups, viz. into a control group and a test group. For 10 days a dose of 110 mg of brazilin per kg body weight was daily administered to the animals of the test group. Then, the blood sugar values were measured again.

[8] = Body weight and blood sugar of the rats of the MDA test; type: in vivo; conditions: on 30th day
Description: Rats were divided into four test groups, viz.
Group B: Normal rats (8 laboratory animals) to which an aqueous brazilin solution (comprising 110 mg of brazilin per kg body weight) was daily administered from the 20th to the 30th day
Group D: Diabetic rats (10 laboratory animals); for inducing diabetes, a dose of 70 mg of streptozotocin per kg body weight in 0.1M citrate buffer solution (pH 4.0) was administered intraperitoneally to normal rats on the 1st test day. From the 20th to the 30th day of the test aqueous brazilin solution (comprising 110 mg of brazilin per kg body weight) was daily administered orally to these diabetic rats. (Instead of an aqueous brazilin solution, the same amount of distilled water was administered to the laboratory animals of the groups A and C from the 20th to the 30th day.)

SMILES: Oc1ccc2c(c1)OC[C@]1(O)Cc3cc(O)c(O)cc3[C@H]21 [brazilin]
- anti-inflammatory effect [1]: anti-inflammatory effect
- effect on lipid peroxidation in mitochondria of rat liver [2]: effect on the lipid peroxidation
- T/min, Aggregation (first value) ([3]; 10^-3 M): 21.1%
- Tmax, Aggregation (first value) ([3]; 10^-3 M): 31.5%
- T/min, Aggregation (first value) ([3]; 10^-4 M): 34.8%
- Tmax, Aggregation (first value) ([3]; 10^-4 M): 60.7%
- activity at 1000 µM ([3]; 10^-3 M, read-out: T/min, Aggregation relative to control (second value)): 28.1%
- activity at 1000 µM ([3]; 10^-3 M, read-out: Tmax, Aggregation relative to control (second value)): 41.8%
- inhibition at 1000 µM ([3]; 10^-3 M, read-out: T/min, Inhibition): 71.9%
- inhibition at 1000 µM ([3]; 10^-3 M, read-out: Tmax, Inhibition): 58.2%
- activity at 100 µM ([3]; 10^-4 M, read-out: T/min, Aggregation relative to control (second value)): 46.4%
- activity at 100 µM ([3]; 10^-4 M, read-out: Tmax, Aggregation relative to control (second value)): 80.1%
- inhibition at 100 µM ([3]; 10^-4 M, read-out: T/min, Inhibition): 53.6%
- inhibition at 100 µM ([3]; 10^-4 M, read-out: Tmax, Inhibition): 19.9%
- β-galactosidase activity (β-galactosidase; after 10 days, p < 0.05 vs. Group II (14.74), Group I 11.53): 12.33 ± 1.95
- β-galactosidase activity (β-galactosidase; after 30 days, p < 0.001 vs. Group II (7.39), Group I 8.90): 10.28 ± 0.55
- α-mannosidase activity (α-mannosidase; after 10 days, p < 0.001 vs. Group II (8.60), Group I 8.72): 12.49 ± 1.34
- α-mannosidase activity (α-mannosidase; after 30 days, p < 0.001 vs. Group II (5.69), Group I 6.57): 5.99 ± 0.54
- β-glucuronidase activity (β-glucuronidase; after 10 days, p < 0.025 vs. Group II (3.33), Group I 4.82): 4.02 ± 0.65
- β-glucuronidase activity (β-glucuronidase; after 30 days, p < 0.05 vs. Group II (2.31), Group I 2.26): 2.49 ± 0.25
- affinity of the insulin receptors (insulin receptors; erythrocytes, 15° C., 120 min, treated vs. control (FIGS. 6, 7)): no significant affinity differences
- number of insulin receptors (insulin receptors; peripheral erythrocytes, treated vs. control): increase of the number of the peripheral insulin receptors
- antibacterial effect [4]: antibacterial effect
- effects compared with administration of major amounts of full extract [5]: substantially has the same effects
- effect on the production of free fatty acids ([6]; basal and insulin stimulated): In none of the two cases additional administration of brazilin has any significant effect
- restoration of initial production of esterified lipids, basal ([6]; diabetic rats + brazilin): 24.7%
- restoration of initial production of esterified lipids, insulin stimulated ([6]; diabetic rats + brazilin, insulin 25 ng/ml): 19.8%
- Glucose→FFA (free fatty acids), basal ([6]; diabetic rats + brazilin, n=6, not significant vs diabetic control, diabetic 2.60, normal 3.18): 1.83 ± 0.43 nmol/100 mg tissue/120 min
- Glucose→E.L. (esterified lipids), basal ([6]; diabetic rats + brazilin, n=10, P < 0.01 vs. diabetic control, diabetic 78.8, normal 220.8): 113.9 ± 9.5 nmol/100 mg tissue/120 min
- Glucose→FFA (free fatty acids), insulin stimulated ([6]; insulin 25 ng/ml, n=6, not significant vs diabetic control, diabetic 3.73, normal 8.42): 3.39 ± 0.76 nmol/100 mg tissue/120 min
- Glucose→E.L. (esterified lipids), insulin stimulated ([6]; insulin 25 ng/ml, n=9, P < 0.1 vs diabetic control, diabetic 276.5, normal 528.0): 326.2 ± 18.4 nmol/100 mg tissue/120 min
- Blood sugar ([7]; diabetic rats, 30 days after onset of diabetes, 110 mg/kg daily 10 days, before treatment (20 days) 266 ± 16.7, diabetic control 337 ± 45.6): 165 ± 42.7 mg/100 ml
- Blood sugar ([7]; normal rats, brazilin treated, 30 days, normal control 79 ± 22.2): 77 ± 20.3 mg/100 ml
- lowering of the blood sugar values ([7]; streptozotocin diabetic rats, 110 mg/kg daily): significant lowering of the blood sugar values
- Blood sugar ([8]; Group B (normal + brazilin), normal control 79): 77 ± 20.3 mg/100 ml
- Body weight ([8]; Group B (normal + brazilin), normal control 222): 226 ± 24.4 g
- Blood sugar ([8]; Group D (diabetic + brazilin), 266 on 20th day, diabetic control 337): 165 ± 42.7 mg/100 ml
- Body weight ([8]; Group D (diabetic + brazilin), diabetic control 185): 206 ± 9.61 g
